{
  "source": "paper PMC8877724",
  "about": "(Journal of medicinal chemistry, 2020)",
  "key": {"[1]": {"experiment": "Reaction with excess cysteamine monitored by 1H NMR", "format": "physicochemical"}, "[2]": {"tested_on": "NF-κB signaling in A549 cells bearing a stably transfected NF-κB-driven luciferase reporter gene", "experiment": "NF-κB luciferase reporter assay, TNF-α induced", "format": "cell-based", "details": "tested at 5-20 μM, 20 μM the highest concentration tested"}, "[3]": {"tested_on": "Vero cells", "experiment": "Vero cell viability assay", "format": "cell-based, African green monkey", "details": "48 h"}, "[4]": {"tested_on": "NF-κB signaling in HEK293 cells containing a stably transfected NF-κB-driven SEAP reporter gene", "experiment": "NF-κB secreted alkaline phosphatase", "format": "cell-based, human", "details": "tested at 1-7.5 μM, SEAP reporter assay"}, "[5]": {"target": "T1, La antigen (Homo sapiens, UniProt P05455)", "T1 sequence (P05455 100-324 limits assumed)": "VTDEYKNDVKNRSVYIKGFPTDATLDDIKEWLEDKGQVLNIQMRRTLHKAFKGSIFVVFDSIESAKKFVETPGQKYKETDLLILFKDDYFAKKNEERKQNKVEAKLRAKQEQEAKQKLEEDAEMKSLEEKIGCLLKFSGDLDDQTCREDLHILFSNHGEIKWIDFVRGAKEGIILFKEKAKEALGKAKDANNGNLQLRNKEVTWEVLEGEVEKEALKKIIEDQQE", "details": "cited from earlier work"}, "[6]": {"details": "cited from earlier work"}, "[7]": {"tested_on": "A549/NF-κB-luc cells", "details": "10 μM, A549/NF-κB-luc assay; cited from earlier work"}, "[8]": {"tested_on": "HEK293/NF-κB-SEAP cells", "experiment": "Cellular cytotoxicity accompanying the SEAP reporter assay", "format": "cell-based, human", "details": "7.5 μM"}},
  "note": "“Also recorded” adds a separate entry of the source. Read-outs that look alike come from different tables or passages of the source.",
  "data": [
    {"compound": "3-methylene-9-phenyl-3,3a,4,5-tetrahydroazuleno[4,5-b]furan-2,8(7H,9bH)-dione [Compound S17]", "values": [
      {"measurement": "Half-life", "setting": "[1]; HSCH2CH2NH2 (15 equiv), CDCl3 (0.006 M), rt", "value": 7, "unit": "min"}
    ]},
    {"compound": "C=C1C(=O)N[C@@H]2C3=C(c4ccccc4)C(=O)CC3=C(C)CC[C@@H]12", "note": "(relative stereo) [Compound 45, (3aS*,9bS*)-6-Methyl-3-methylene-9-phenyl-3,3a,4,5-tetrahydro-1H-azuleno[4,5-b]pyrrole-2,8(7H,9bH)-dione]", "values": [
      {"measurement": "NF-κB inhibition (in words)", "setting": "[2]", "value": "did not inhibit NF-κB signaling; also recorded: no NF-κB inhibition"}
    ]},
    {"compound": "C=C1C(=O)N[C@@H]2C3=CC(=O)CC3=C(C)CC[C@@H]12", "note": "(relative stereo) [Compound 47, (3aS*,9bS*)-6-Methyl-3-methylene-1,3a,4,5,7,9b-hexahydro-2H-azuleno[4,5-b]pyrrole-2,8(3H)-dione]", "values": [
      {"measurement": "cytotoxicity (in words)", "setting": "[3]", "value": "low cytotoxicity"},
      {"measurement": "NF-κB inhibition (in words)", "setting": "[2]", "value": "did not inhibit NF-κB signaling; also recorded: little or no inhibition"},
      {"measurement": "NF-κB inhibition (in words)", "setting": "[4]", "value": "little or no inhibition"}
    ]},
    {"compound": "C=C1C(=O)N(C)[C@@H]2C3=C(c4ccccc4)C(=O)CC3=C(C)CC[C@@H]12", "note": "(relative stereo) [Compound 48, (3aS*,9bS*)-1,6-Dimethyl-3-methylene-9-phenyl-1,3a,4,5,7,9b-hexahydro-2H-azuleno[4,5-b]pyrrole-2,8(3H)-dione]", "values": [
      {"measurement": "NF-κB inhibition (in words)", "setting": "[2]", "value": "no inhibitory activities"}
    ]},
    {"compound": "C=C1C(=O)N(c2ccccc2)[C@@H]2C3=C(c4ccccc4)C(=O)CC3=C(C)CC[C@@H]12", "note": "(relative stereo) [Compound 49, (3aS*,9bS*)-6-Methyl-3-methylene-1,9-diphenyl-1,3a,4,5,7,9b-hexahydro-2H-azuleno[4,5-b]pyrrole-2,8(3H)-dione]", "values": [
      {"measurement": "NF-κB inhibition (in words)", "setting": "[2]", "value": "no inhibitory activities; also recorded: little NF-κB inhibitory activity; also recorded: no NF-κB inhibition"}
    ]},
    {"compound": "C=C1C(=O)N(c2ccc(OC)cc2)[C@@H]2C3=C(c4ccccc4)C(=O)CC3=C(C)CC[C@@H]12", "note": "(relative stereo) [Compound 52, (3aS*,9bS*)-1-(4-Methoxyphenyl)-6-methyl-3-methylene-9-phenyl-1,3a,4,5,7,9b-hexahydro-2H-azuleno[4,5-b]pyrrole-2,8(3H)-dione]", "values": [
      {"measurement": "NF-κB inhibition (in words)", "setting": "[2]", "value": "no inhibitory activities; also recorded: little NF-κB inhibitory activity; also recorded: no NF-κB inhibition"}
    ]},
    {"compound": "C=C1C(=O)N(S(=O)(=O)c2ccc(C)cc2)[C@@H]2C3=C(c4ccccc4)C(=O)CC3=C(C)CC[C@@H]12", "note": "(relative stereo) [Compound 54, (3aS*,9bS*)-6-Methyl-3-methylene-9-phenyl-1-tosyl-1,3a,4,5,7,9b-hexahydro-2H-azuleno[4,5-b]pyrrole-2,8(3H)-dione]", "values": [
      {"measurement": "time to complete reaction with cysteamine", "setting": "[1]; cysteamine (15 equiv), CDCl3, rt, disappearance of methylene resonances by 1H NMR", "value": "less than 10 min"}
    ]},
    {"compound": "C=CC(=O)N1CCC[C@@H](n2nc(-c3ccc(Oc4ccccc4)cc3)c3c(N)ncnc32)C1", "note": "[Ibrutinib]", "values": [
      {"measurement": "ALARM NMR result", "setting": "[5]", "value": "ALARM NMR negative"}
    ]},
    {"compound": "C=C1C(=O)O[C@@H]2[C@H]3O[C@]3(C)CC/C=C(\\C)CC[C@@H]12", "note": "[PTL, parthenolide]", "values": [
      {"measurement": "time to complete reaction with cysteamine", "setting": "[6]", "value": "less than 5 min"},
      {"measurement": "cytotoxicity (in words)", "setting": "[7]", "value": "no cytotoxicity"},
      {"measurement": "cytotoxicity (in words)", "setting": "[8]", "value": "moderate level of cytotoxicity"}
    ]}
  ]
}
